Data from publication PMC7728077, “Double-Headed Cationic Lipopeptides: An Emerging Class of Antimicrobials” (International Journal of Molecular Sciences, 2020).
Peptide text beside a SMILES is read from it. * marks the point of attachment. Palmitoyl = CCCCCCCCCCCCCCCC(=O)*

How the values were obtained:
[1] = NMR DOSY, 700 MHz
Description: NMR spectra were recorded on a Bruker AVANCE III 700 MHz spectrometer. The size of lipopeptide assemblies was determined by an NMR method measuring the self-diffusion coefficient (DOSY experiments). The lipopeptide self-diffusion coefficient, D, was measured by attenuation of the spin-echo signal intensity (I) as a function of gradient amplitude (g), expressed by the Stejskal–Tanner formula, I = I0exp[−Dg^2γ^2 δ^2(∆ − δ/3)] [39], where I0 is the echo intensity in the absence of the field gradient pulse, γ = 2.675 × 10^8 rad T^−1 s^−1 is the gyromagnetic ratio of the ^1H nucleus, δ is the duration of the field gradient pulse, and ∆ is the time period between two field gradient pulses. […] The spectra were processed and analyzed using Topspin 3.2 (Bruker, Billerica, MA, USA).

[2] = test system: S. epidermidis; assay: LIVE/DEAD SYTO9/PI bacterial viability staining, fluorescence microscopy; assay type: cell-based, Staphylococcus epidermidis; conditions: 8, 16 and 32 µg/mL (1×, 2×, 4× MIC), regardless of concentration; at least two independent replicates
Description: (§1) Bacteria were inoculated in the Luria–Bertani medium and cultured with shaking at 37 °C up to the early exponential phase (A600 = 0.1). Then, 1.5 mL of the cultures were transferred to 5 mL Eppendorf tubes and treated with suitable peptides added at concentrations of 1×, 2×, or 4× MIC. For the negative control, bacteria were treated with a pure vehicle (water). Next, the cells were cultured for 1 or 2 h, as indicated. To obtain a positive control, at the end of the incubation, one portion of bacteria was collected and suspended in 200 µL of 70% ethanol for 5 min. After incubation, bacteria were collected by centrifugation (10 min, 3000× g) and washed twice with 0.85% NaCl. To determine membrane integrity, bacteria were stained with a LIVE/DEAD™ BacLight™ Bacterial Viability Kit (Thermo Fisher Scientific, Waltham, MA, USA) containing two dyes, i.e., a bacterial membrane permeable SYTO9 (green fluorescence) and an impermeable propidium iodide (red fluorescence) that stains only bacteria with damaged membrane. The staining was performed according to the manufacturer instructions. Then, bacteria were collected by centrifugation and washed twice with 0.85% NaCl. Bacteria pellets were suspended in 10 µL of 0.85% NaCl. Next, 3 µL of each suspension were spotted on agarose pads, covered with coverslips and immediately imaged using fluorescence microscope (Leica DMI4000B) with 100× objective. […]

[3] = test system: E. coli; assay: as above; assay type: cell-based, Escherichia coli; conditions: 4, 8 and 16 µg/mL (1×, 2×, 4× MIC); at least two independent replicates
Description: as §1

Compound | first breakpoint of self-diffusion coefficient vs. concentration (premicellar state) [1] | second breakpoint of self-diffusion coefficient vs. concentration (micellar state) [1] | membrane integrity of S. epidermidis cells (SYTO9/PI staining) [2] | membrane integrity of E. coli cells (SYTO9/PI staining) [3]
CCCCCCCCCCCCCCCC(=O)NCCC[C@H](NC(=O)[C@@H](N)CCCCN)C(=O)N[C@@H](CCCCN)C(N)=O [K(OC16)K-NH2] | around 6 mM | around 9 mM |  | 
CCCCCCCCCCCCCCCC(=O)NCCCC[C@H](NC(=O)[C@H](CCCCN)NC(=O)[C@@H](N)CCCCN)C(=O)N[C@@H](CCCCN)C(=O)N[C@@H](CCCCN)C(N)=O [KK(KC16)KK-NH2] (H-KKK(Palmitoyl)KK-NH2) |  |  | stained red | smaller number of red-stained cells than in the case of S. epidermidis
